According to patent US10206906B2, “Synergistic combination of a phenolic-rich maple syrup extract and an antibiotic” (priority 2015, dated 2019):
Values after ≈ are worked out from the molar mass of the structure shown.

Experiments:
P. mirabilis HI4320 [1] = experiment: Checkerboard microdilution assay (growth inhibition synergy); assay type: cell-based, Proteus mirabilis; conditions: for FIC of ciprofloxacin: ciprofloxacin in combination with the labelled phenolic constituent; for FICI: labelled phenolic constituent + ciprofloxacin, * = synergistic interaction; for FIC of compound: labelled phenolic constituent in combination with ciprofloxacin
Experimental: (§1) The checkerboard microdilution assay is used for evaluation of in vitro antimicrobial synergy between two compounds (i.e., antibiotic/PRMSE, antibiotic/pure phenolic compound, and pure phenolic compounds with each other). Two-fold serial dilutions are prepared in MHB-II for each of the two compounds under study. The serial dilutions are then loaded into 96 well plates to achieve combinations having different concentrations of each of the two compounds. Each well is subsequently inoculated with 10^6 CFU mL^−1 of the desired bacterial strain and incubated at 37° C. for 18 h under static conditions. The Fractional Inhibitory Concentration Index (FICI) for each combination is calculated by using the following formula: FICcomponent 1=MICcomponent 1, in combination/MICcomponent 1,alone FICI=FICcomponent 1+FICcomponent 2
(§2) The FICIs are interpreted as follows: FICI of […] (synergy); 0.5<FICI ≤1 (no interaction/indifference); FICI of >4 (antagonism).

P. aeruginosa PAO1 [2] = experiment: as above; assay type: cell-based, Pseudomonas aeruginosa; conditions: for FIC of ciprofloxacin: ciprofloxacin in combination with the labelled phenolic constituent; for FICI: labelled phenolic constituent + ciprofloxacin, * = synergistic interaction; for FIC of compound: labelled phenolic constituent in combination with ciprofloxacin
Experimental: as §1, §2

P. aeruginosa PA14 [3] = experiment: as above; assay type: cell-based, Pseudomonas aeruginosa; conditions: for FIC of ciprofloxacin: ciprofloxacin in combination with the labelled phenolic constituent; for FICI: labelled phenolic constituent + ciprofloxacin, * = synergistic interaction; for FIC of compound: labelled phenolic constituent in combination with ciprofloxacin
Experimental: as §1, §2

E. coli CFT073 [4] = experiment: as above; assay type: cell-based, Escherichia coli; conditions: for FIC of ciprofloxacin: ciprofloxacin in combination with the labelled phenolic constituent; for FICI: labelled phenolic constituent + ciprofloxacin, * = synergistic interaction; for FIC of compound: labelled phenolic constituent in combination with ciprofloxacin
Experimental: as §1, §2

P. mirabilis HI4320 [5] = experiment: Determination of minimum inhibitory concentration (MIC); assay type: cell-based; conditions: Proteus mirabilis, HI4320, 18 h; read-out: MIC
Experimental: (§3) A range of concentration of antibiotics, ciprofloxacin (0.0003-0.25 μg mL^−1) and carbenicillin (0.5-512 μg mL^−1), are chosen due to their known potency against all four bacterial strains. Dilutions are prepared in flat bottom, 96 well microtitre plates (Falcon™, Corning™, Fisher Scientific, ON, Canada). Each well of a microtitre plate is then inoculated with the desired bacterial strain (grown in MHB-II and diluted to […]) and the plate is incubated at 37° C. for 18 h under static conditions. Bacterial growth is assessed by (i) monitoring the optical density of the cell suspension in each well at 600 nm (OD600 nm), and (ii) the resazurin microtitre plate assay. In the resazurin microtitre plate assay, each well of a microtitre plate is supplemented with 20 μM resazurin, incubated in the dark for 20 min at room temperature, followed by fluorescence measurements at ex/em 570/590 nm using a TECAN Infinite M200 Pro microplate reader (Tecan Group Ltd., Switzerland). The lowest concentration of a compound able to prevent increase in OD600 nm and resazurin fluorescence intensity is recorded as the MIC for that compound.

E. coli CFT073 [6] = experiment: as above; assay type: cell-based; conditions: Escherichia coli, CFT073, 18 h; read-out: MIC
Experimental: as §3

P. aeruginosa PAO1 [7] = experiment: as above; assay type: cell-based; conditions: Pseudomonas aeruginosa, PAO1, 18 h; read-out: MIC
Experimental: as §3

P. aeruginosa PA14 [8] = experiment: as above; assay type: cell-based; conditions: Pseudomonas aeruginosa, PA14, 18 h; read-out: MIC
Experimental: as §3

[9] = tested on: outer membrane of P. mirabilis HI4320; experiment: Outer membrane permeabilization, NPN uptake assay; assay type: cell-based, Proteus mirabilis; conditions: positive control gentamicin, above and below MICs
Experimental: (§4) The cells are harvested, washed with 5 mM HEPES buffer (pH 7.2), and resuspended in the same volume (10 mL) of 5 mM HEPES buffer (pH 7.2) containing 1 mM N-ethylmaleimide (NEM, Sigma-Aldrich Canada). Aliquots (1 mL) are mixed with NPN to a final concentration of 10 μM (in cell suspension) and fluorescence is measured using the microplate reader (ex/em 350/420 nm).

[10] = tested on: outer membrane of P. aeruginosa PA14; experiment: Outer membrane permeabilization, NPN uptake assay; assay type: cell-based, Pseudomonas aeruginosa; conditions: positive control gentamicin, above and below MICs
Experimental: as §4

[11] = tested on: outer membrane of P. aeruginosa PAO1; experiment: Outer membrane permeabilization, NPN uptake assay; assay type: cell-based, Pseudomonas aeruginosa; conditions: positive control gentamicin, above and below MICs
Experimental: as §4

[12] = tested on: outer membrane of E. coli CFT073; experiment: Outer membrane permeabilization, NPN uptake assay; assay type: cell-based, Escherichia coli; conditions: positive control gentamicin, above and below MICs
Experimental: as §4

[13] = labelled constituent + catechol, * = synergistic
[14] = labelled constituent + gallic acid, * = synergistic
[15] = labelled constituent combined with catechol
[16] = labelled constituent combined with gallic acid

Row | Compound | FIC of ciprofloxacin (P. mirabilis HI4320 [1]) | FICI (P. mirabilis HI4320 [1]) | FIC of compound (P. mirabilis HI4320 [1]) | FIC of ciprofloxacin (P. aeruginosa PAO1 [2]) | FICI (P. aeruginosa PAO1 [2]) | FIC of compound (P. aeruginosa PAO1 [2]) | FIC of ciprofloxacin (P. aeruginosa PA14 [3]) | FICI (P. aeruginosa PA14 [3]) | FIC of compound (P. aeruginosa PA14 [3]) | FIC of ciprofloxacin (E. coli CFT073 [4]) | FICI (E. coli CFT073 [4]) | FIC of compound (E. coli CFT073 [4]) | MIC (P. mirabilis HI4320 [5]) [µg/mL] | MIC (E. coli CFT073 [6]) [µg/mL] | MIC (P. aeruginosa PAO1 [7]) [µg/mL] | MIC (P. aeruginosa PA14 [8]) [µg/mL] | further results
1 | O=Cc1ccc(O)c(O)c1 [catechaldehyde, 3,4-dihydroxybenzaldehyde] | 0.5 | 1.5 | 1 | 0.5 | 1.01 | 0.51 | 1 | 2 | 1 | 1 | 2 | 1 | 1250 (≈ 9.05 mM) | 1250 (≈ 9.05 mM) | 1250 (≈ 9.05 mM) | 1250 (≈ 9.05 mM) | FICI, catechol (P. mirabilis HI4320 [1]; [13]): 0.5*; FICI, gallic acid (P. mirabilis HI4320 [1]; [14]): 0.37*; FIC, catechol (P. mirabilis HI4320 [1]; [15]): 0.25; FIC, gallic acid (P. mirabilis HI4320 [1]; [16]): 0.13; FICI, catechol (P. aeruginosa PAO1 [2]; [13]): 0.37*; FICI, gallic acid (P. aeruginosa PAO1 [2]; [14]): 0.37*; FIC, catechol (P. aeruginosa PAO1 [2]; [15]): 0.25; FIC, gallic acid (P. aeruginosa PAO1 [2]; [16]): 0.13; FICI, catechol (P. aeruginosa PA14 [3]; [13]): 0.5*; FICI, gallic acid (P. aeruginosa PA14 [3]; [14]): 0.5*; FIC, catechol (P. aeruginosa PA14 [3]; [15]): 0.25; FIC, gallic acid (P. aeruginosa PA14 [3]; [16]): 0.25; FICI, catechol (E. coli CFT073 [4]; [13]): 0.5*; FICI, gallic acid (E. coli CFT073 [4]; [14]): 0.5*; FIC, catechol (E. coli CFT073 [4]; [15]): 0.25; FIC, gallic acid (E. coli CFT073 [4]; [16]): 0.25
2 | O=C(O)c1cc(O)c(O)c(O)c1 [gallic acid] | 1 | 2 | 1 | 1 | 2 | 1 | 1 | 2 | 1 | 1 | 2 | 1 | 5000 (≈ 29.4 mM) | 5000 (≈ 29.4 mM) | 5000 (≈ 29.4 mM) | 5000 (≈ 29.4 mM) | –
3 | gentamicin [reference compound] | – | – | – | – | – | – | – | – | – | – | – | – | – | – | – | – | Minimum permeabilization concentration [9]: 0.013 µg/mL; Minimum permeabilization concentration [10]: 1 µg/mL; Minimum permeabilization concentration [11]: 1 µg/mL; Minimum permeabilization concentration (NPN assay) [12]: 0.006 µg/mL
